In US20260015662A1, “DETECTING ANTIBIOTIC AND/OR CHEMICAL USE IN ANIMALS USING EPIGENETIC MEANS” (Evonik Operations GmbH, priority 2022, published 2026):
Structures can show the parent of a compound that is named as a salt.

Columns and labels:
[1] = system: IPEC2 cells (swine intestinal cell line IPEC2-J2); assay: Methylated DNA quantification in swine intestinal cell line treated with antibiotics; assay type: cell-based; conditions: for average amount of methylated DNA: Tet 200 mg/L, Amx 100 mg/L, Col 480 mg/L, ± SEM; for size of the reduction in overall DNA methylation (rank among the three antibiotics): within 24 hrs of treatment, compared with antibiotic free control cells
Method: An in vitro to investigate the effects of three different antibiotics on the DNA methylation quantity in a swine intestinal cell line.
An immortalised cell line from swine intestines (IPEC2-J2 ACC 701 from DSMZ cell culture) was utilized in the 7th passage. In a 12 well, flat-bottom plate, 1×10^4 cel|s/well were seeded with DPBS D8537 (Sigma-Aldrich) and initially incubated for 4 days. After incubation cells were treated with one of 4 treatments for up to an additional 4 days: • 1) Incubation for 4 days without any antibiotics • 2) Incubation for 1 day with antibiotics followed by incubation for 1-3 days in antibiotic free media • 3) Incubation for 2 days with antibiotics followed by incubation for 1-2 days in antibiotic free media • 4) Incubation for 3 days with antibiotics followed by incubation for 1 day in antibiotic free media
Treatments 2, 3 and 4 were repeated with 3 different antibiotic treatments; tetracycline hydrochloride at 200 mg/L, Amoxicillin at 100 mg/L and Colistin at 480 mg/L. Duplicate cells per treatment were harvested at each time point. Media was removed, cells were washed once with DPBS, and a cell scraper was used to disassociate the cells from the bottom of the well. Cell pellets were then stored at −80° C. until DNA could be isolated using the NuceloSpin® DNA Stool Kit (Macherey and Nagel). Methylation grade of 100ng of isolated DNA was determined using the Imprint® Methylated DNA Quantification Kit (Sigma-Aldrich) which compared samples to a standard curve of known methylated DNA.

[2] = cited from earlier work; for Absorption: absorption level of the antibiotic
[3] = 1 day with antibiotic before washing, harvested Day 1
[4] = 1 day with antibiotic before washing, harvested Day 2
[5] = 1 day with antibiotic before washing, harvested Day 3
[6] = 1 day with antibiotic before washing, harvested Day 4
[7] = 2 days with antibiotic before washing, harvested Day 2
[8] = 2 days with antibiotic before washing, harvested Day 3
[9] = 2 days with antibiotic before washing, harvested Day 4
[10] = 3 days with antibiotic before washing, harvested Day 3
[11] = 3 days with antibiotic before washing, harvested Day 4

Molecule | average amount of methylated DNA [1, 3] | average amount of methylated DNA [1, 4] | average amount of methylated DNA [1, 5] | average amount of methylated DNA [1, 6] | average amount of methylated DNA [1, 7] | average amount of methylated DNA [1, 8] | average amount of methylated DNA [1, 9] | average amount of methylated DNA [1, 10] | average amount of methylated DNA [1, 11] | size of the reduction in overall DNA methylation (rank among the three antibiotics) [1] | Absorption [2] | Recommended Withdrawal for Broilers [2]
CN(C)[C@@H]1C(O)=C(C(N)=O)C(=O)[C@@]2(O)C(O)=C3C(=O)c4c(O)cccc4[C@@](C)(O)[C@H]3C[C@@H]12 [Tet, tetracycline hydrochloride] | −5.6 ± 2.9 ng/100 ng isolated DNA | 12.0 ± 6.9 ng/100 ng isolated DNA | 18.2 ± 16.0 ng/100 ng isolated DNA | 25.8 ± 22.4 ng/100 ng isolated DNA | 0.1 ± 8.1 ng/100 ng isolated DNA | −8.6 ± 11.1 ng/100 ng isolated DNA | 7.4 ± 9.7 ng/100 ng isolated DNA | 6.0 ± 13.2 ng/100 ng isolated DNA | 21.7^3 ng/100 ng isolated DNA | largest | – | –
Bacitracin Methylene Disalicylate [BMD] | – | – | – | – | – | – | – | – | – | – | Local | None required
CC[C@H]1OC(=O)C[C@@H](O)[C@H](C)[C@@H](O[C@@H]2O[C@H](C)[C@@H](O[C@H]3C[C@@](C)(O)[C@@H](O)[C@H](C)O3)[C@H](N(C)C)[C@H]2O)[C@@H](CC=O)C[C@@H](C)C(=O)/C=C/C(C)=C/[C@@H]1CO[C@@H]1O[C@H](C)[C@@H](O)[C@@H](OC)[C@H]1OC [Tylosin] | – | – | – | – | – | – | – | – | – | – | Systemic | 5 days
CC1(C)S[C@@H]2[C@H](NC(=O)[C@H](N)c3ccc(O)cc3)C(=O)N2[C@H]1C(=O)O [Amoxicillin] | 4.1 ± 8.9 ng/100 ng isolated DNA | 12.3 ± 3.2 ng/100 ng isolated DNA | 20.4 ± 8.3 ng/100 ng isolated DNA | 19.0 ± 2.1 ng/100 ng isolated DNA | 20.9 ± 10.4 ng/100 ng isolated DNA | 9.8 ± 4.7 ng/100 ng isolated DNA | 21.3 ± 3.4 ng/100 ng isolated DNA | 26.0 ± 10.2 ng/100 ng isolated DNA | 10.2 ± 9.4 ng/100 ng isolated DNA | – | Systemic | 1 to 4 days
Colistin | 26.1 ± 5.0 ng/100 ng isolated DNA | 11.7 ± 6.8 ng/100 ng isolated DNA | 19.6 ± 5.5 ng/100 ng isolated DNA | 24.9 ± 0.8 ng/100 ng isolated DNA | 29.5 ± 3.8 ng/100 ng isolated DNA | 1.4 ± 7.9 ng/100 ng isolated DNA | 19.0 ± 5.4 ng/100 ng isolated DNA | 29.1 ± 18.0 ng/100 ng isolated DNA | 28.5 ± 16.4 ng/100 ng isolated DNA | finally | – | –
